Read-outs that look alike come from different tables or passages of the source.
Legend:
[1] = Pharmacokinetic study, single IV and PO administration to ICR mice; type: in vivo
Protocol: The pharmacokinetic parameters of Compound P9 of the invention and the representative compounds of WO2017/114510A1 in mice were determined in this Example.
(1) In Vivo Pharmacokinetics Protocol for Single Intravenous (IV) and Oral (PO) Administration to ICR Mice
The concentration during formulation of test substances was calculated on the basis of pure free base.
The test substance was accurately weighed, and added with the excipients (5% DMSO+5% Solutol+90% saline) in the specified amounts. After complete dissolution, the dosing solution for intravenous injection was obtained at the concentration of 0.2 mg/mL.
The test compound was accurately weighed, and added with the excipients (0.4% methylcellulose (viscosity: 400 cps)) in the specified amount. After sufficiently mixing, the dosing solution for oral administration was obtained at the concentration of 1 mg/mL.
Forty male SPF grade ICR mice were purchased from Shanghai Xipuer-Bikai Laboratory Animal Co., Ltd., and 30 normal healthy ICR mice of them passed the physical examination and were used in this study. Animal weight: 20.12-25.56 g.
Blood was collected through the orbit or through cardiac puncture after carbon dioxide (CO2) euthanasia. About 0.20 milliliter (mL) of blood was collected for each sample with heparin sodium as anticoagulant agent. The samples were placed on ice after collection. […]
The biological samples of the test substances were analyzed by LC-MS/MS. […]
The pharmacokinetic parameters were calculated from the blood concentration data of the drug, using WinNonlin 7.0 to provide the parameters such as AUC0-t, AUC0-∞, MRT0-∞, Cmax, Tmax, and T1/2, and the average and standard deviation thereof.
For those samples with concentrations below the lower limit of quantitation, when calculating the pharmacokinetic parameters, samples collected before Cmax should be calculated as zero, and samples collected at the points after Cmax should be calculated as being below the limit of qualitification (BLQ).

ERK2 kinase = ERK2 kinase (Homo sapiens (Human), UniProt P28482); experiment: In vitro enzyme activity assay, ERK2 kinase (Z'-LYTE); type: biochemical
Protocol: Half inhibitory activity of the compounds of the invention against ERK2 kinase (IC50 value) was determined in this Example.
• Enzyme: extracellular signal-regulated kinase ERK2 kinase (PV3595, Invitrogen) • Kit: Z′-LYTE® Protein Kinase Assay Kit-Ser/Thr 3 Peptide (PV3176, Invitrogen) • Kit components: The substrate Z′-LYTE™ Ser/Thr 3 Peptide (PV3200) • The phosphorylation substrate Z′-LYTE™ Ser/Thr 3 Phospho-peptide (PV3215) • 5× kinase buffer: 250 mM HEPES (pH 7.5), 50 mM MgCl2, • 5 mM EGTA, 0.05% BRIJ-35 (PV3189, Invitrogen) • ATP (PV3227, Invitrogen) • Development Reagent A (PV3295, Invitrogen) • Development Buffer (P3127, Invitrogen) • Stop Reagent (P3094, Invitrogen) • Microplate reader: The multil-mode microplate reader PerkinElmer EnVision® • Microplate: black shallow 384-well microplate (6008269, PerkinElmer) (2). Assay Protocol:
The substrate Z′-LYTE™ Ser/Thr 3 Peptide, the phosphorylation substrate Z′-LYTE™ Ser/Thr 3 Phospho-peptide, 1× kinase buffer (5× kinase buffer was diluted with ultra pure water by five times), ATP, Development Reagent A, Development Buffer, Stop Reagent were balanced to room temperature for use. The screening concentrations for detecting the effect of the compounds of the invention on the ERK kinase activity were seven 3-fold serial dilutions starting from 1 μM (from 0.2 μM for the positive drug control) using 4% DMSO as co-solvent. 5 μL enzyme system (50 mM HEPES pH 7.5, 1 mM EGTA, 10 mM MgCl2, 0.01% Brij-35, 4 uM substrate, 0.8 ng/μL enzyme), 2.5 μL Compound, 2.5 μL 400 μM ATP were added into 384 well microplate, followed by incubation at room temperature for 60 min in the dark. After the reaction was completed, 5 μl the developing agent (Development Reagent A) diluted with the developing buffer (Development Buffer) was added to all reaction wells, followed by incubation at the room temperature for 60 min in the dark. 5 μL the terminating agent was added to each well to terminate the reaction. The fluorescence was determined using the multil-mode microplate reader PerkinElmer EnVision® (excitation wavelength 400 nm, emission wavelength 460 nm and 528 nm).
The inhibition rate of each well was calculated from 100% phosphorylation substrate well and 0% phosphorylation substrate well using the data analysis method below: phosphorylation %=1−{(emission rate×F100%−C100%)/[C0%−C100%+emission rate×(F100%−F0%)]}×100 inhibition %=100×(1−phosphorylation % of the test compound well/phosphorylation % of the 0% inhibition control) • wherein: • emission rate=fluorescence emission of the sample at 445 nm/fluorescence emission of the sample at 520 nm • F100%=the average fluorescence emission of the control well of 100% phosphorylation substrate at 520 nm • F0%=the average fluorescence emission of the control well of 0% phosphorylation substrate at 520 nm • C100%=the average fluorescence emission of the control well of 100% phosphorylation substrate at 445 nm • C0%=the average fluorescence emission of the control well of 0% phosphorylation substrate at 445 nm
Tests were carried out in duplicate. IC50 values were calculated from the inhibition of the kinase by the test compounds at a range of different concentrations.

Sequence of ERK2 kinase (P28482 whole entry): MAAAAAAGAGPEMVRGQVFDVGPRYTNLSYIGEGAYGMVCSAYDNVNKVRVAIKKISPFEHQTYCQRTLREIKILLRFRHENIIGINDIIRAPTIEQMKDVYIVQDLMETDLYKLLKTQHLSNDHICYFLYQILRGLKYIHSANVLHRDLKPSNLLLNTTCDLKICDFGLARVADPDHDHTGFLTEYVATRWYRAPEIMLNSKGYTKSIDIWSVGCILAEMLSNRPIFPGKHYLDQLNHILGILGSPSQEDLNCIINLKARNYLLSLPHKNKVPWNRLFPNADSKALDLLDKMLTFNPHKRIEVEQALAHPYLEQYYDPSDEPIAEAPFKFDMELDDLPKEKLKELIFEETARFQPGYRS

Structure (SMILES): Cn1nccc1Nc1cc(-c2cc(F)c3c(c2)CCN3C(=O)Cc2cccnc2Cl)ccn1 [Example P9, 2-(2-chloropyridin-3-yl)-1-(7-fluoro-5-(2-((1-methyl-1H-pyrazol-5-yl)amino)pyridin-4-yl)indolin-1-yl)ethan-1-one]
- CLz [1]: CLz/(L/hr/kg): 0.36
- F ([1]; po): F/(%, po): 60.55
- nAUC0-t ([1]; po): nAUC0-t/(ng · h/ mL, po): 1696.3
- IC50 (ERK2 kinase; class symbols, read-out: ERK2 IC50): ≤ 10 nM
- IC50 (ERK2 kinase; read-out: IC50 against ERK2 kinase): 3.3 nM

— patent US11465984B2, “Compound having ERK kinase inhibitory activity and use thereof” (SHANGHAI HAIHE PHARMACEUTICAL CO., LTD., priority 2017, dated 2022)
